Test results published in patent US9902735B2, “Heteroaryl substituted compounds as RORγ inhibitors” (GlaxoSmithKline Intellectual Property Developement Limited, priority 2014, dated 2018).

Experiments:
[1] = tested on: human CD4+ T cells; test: Human peripheral blood CD4+ T cell cultures and cytokine analysis (Th17 polarization); assay type: cell-based; details: secreted IL-17A, 5 days Th17 polarization
Method: Human biological samples were cryopreserved human CD4+ T cells purchased from AllCells, LLC and Stemcell Technologies, Inc. The CD4+ T cells were differentiated to the Th17 subtype by culturing for 5 days in tissue culture plates coated with anti-CD3 antibody (2 μg/mL) in Iscove's modified Dulbecco's medium (IMDM) containing 10% HI-FBS, 55 μM 2-mercaptoethanol and soluble anti-CD28 (3 μg/mL) in the presence of a Th17 skewing cocktail, including IL-1β (10 ng/mL), IL-6 (30 ng/mL), TGFβ (0.5 ng/mL), IL-21 (10 ng/mL), IL-23 (10 ng/mL), anti-IFNγ (10 μg/mL) and anti-IL-4 (10 μg/mL). To examine compound effects on Th17 polarization, freshly thawed CD4+ cells in IMDM supplemented with all Th17 polarization cocktail constituents (above) were seeded at low cell density (20,000 cells/well) directly into anti-CD3 coated round bottom 96-well plates already containing serially diluted compounds. Cells were incubated undisturbed for 5 days at 37° C. Immediately following culture, supernatant was analyzed for secreted IL-17A and IL-22 protein by MSD electrochemiluminescent cytokine assays (Mesoscale Discovery) and ELISA (Quantikine assay, R&D Systems), respectively. Compound treatment(s) were performed in triplicate. Results are presented as the mean±SD or as mean percent inhibition (±SD) relative to the response to stimulus alone.

[2] = tested on: Mouse CD4+ cells; test: Th17 cell differentiation assay (IL-17 ELISA); assay type: cell-based; details: mean of multiple test results if tested more than once, read-out: pIC50 in the Th17 cell differentiation assay (converted)
Method: Mouse CD4+ cells were purified using the CD4+ T Cell Isolation II Kit according to manufacturer's instructions (Miltenyi Biotec). 96 well plates were pre-coated with anti-mCD3 antibody. Un-coated wells were used as controls. CD4+ Cells were resuspended in RPMI 1640 complete medium and were added to the 96-well plates. Cytokine cocktail and the compound were then added to the wells. Antibodies and cytokines (all from R&D Systems) used in the assay were selected from the following: anti-mCD3; anti-mCD28; anti-mIFNγ; anti-mIL4; mIL-6; mIL-23; mIL-1β; hTGF-β1. The culture was incubated at 37° C. for 3 days and supernatants were collected for ELISA. The IL-17 ELISAs were performed according to manufacturer's instructions (R&D Systems). The results were analyzed using Prism software with non-linear regression to determine pIC50.
The Th17 differentiation culture described above was maintained for 5 days and cells were analyzed by IL-17 and IFN-γ intracellular staining according to manufacturer's instructions (BD Biosciences).

For `Cc1ncc(C(=O)Nc2cc(Cl)cc(CN3CCN(C(=O)CC4CC4)[C@@H](C)C3)c2C)cc1F` [Example 80, (S)—N-(5-chloro-3-((4-(2-cyclopropylacetyl)-3-methylpiperazin-1-yl)methyl)-2-methylphenyl)-5-fluoro-6-methylnicotinamide], which IC50 ([1]; Homo sapiens, CD4+ T, 120 h, read-out: IL17A pIC50 (converted)) is on record?
The IC50 was 28.8 nM.

What about the “Inhibition Activity (ASSYM MAX)” value [1] of the same compound?
Its value is 94.

And the IC50 [2]?
The IC50 was about 5.01 nM.
